Reference: patent US7074789B2, “Kinase inhibitors” (Amgen Inc., priority 1999, dated 2006)
Read-outs that look alike come from different tables or passages of the source.

What was measured:
Format in all cases: biochemical
[1] = biological target: T1, Kdr (Homo sapiens, UniProt P35968); assay: Kinase inhibition assay (33P transfer), Kdr; details: read-out: KDR-1
T1 construct: Kinases are expressed as either kinase domains or full length constructs; made in house
Procedure, shortened: (§1)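 Enzyme activity is taken as the amount of 33PO4 moved from ATP onto poly(Glu, Tyr) 4:1 or poly(Arg, Ser) 3:1 fixed to the plate surface. Unbound label is removed with 0.5% phosphoric acid before scintillation counting.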

[2] = biological target: T2, Tek (Homo sapiens, UniProt Q02763); assay: Kinase inhibition assay (33P transfer), Tek; details: read-out: Tek-1
T2 construct: Kinases are expressed as either kinase domains or full length constructs; made in house
T2 sequence (Q02763 23-1124, species assumed): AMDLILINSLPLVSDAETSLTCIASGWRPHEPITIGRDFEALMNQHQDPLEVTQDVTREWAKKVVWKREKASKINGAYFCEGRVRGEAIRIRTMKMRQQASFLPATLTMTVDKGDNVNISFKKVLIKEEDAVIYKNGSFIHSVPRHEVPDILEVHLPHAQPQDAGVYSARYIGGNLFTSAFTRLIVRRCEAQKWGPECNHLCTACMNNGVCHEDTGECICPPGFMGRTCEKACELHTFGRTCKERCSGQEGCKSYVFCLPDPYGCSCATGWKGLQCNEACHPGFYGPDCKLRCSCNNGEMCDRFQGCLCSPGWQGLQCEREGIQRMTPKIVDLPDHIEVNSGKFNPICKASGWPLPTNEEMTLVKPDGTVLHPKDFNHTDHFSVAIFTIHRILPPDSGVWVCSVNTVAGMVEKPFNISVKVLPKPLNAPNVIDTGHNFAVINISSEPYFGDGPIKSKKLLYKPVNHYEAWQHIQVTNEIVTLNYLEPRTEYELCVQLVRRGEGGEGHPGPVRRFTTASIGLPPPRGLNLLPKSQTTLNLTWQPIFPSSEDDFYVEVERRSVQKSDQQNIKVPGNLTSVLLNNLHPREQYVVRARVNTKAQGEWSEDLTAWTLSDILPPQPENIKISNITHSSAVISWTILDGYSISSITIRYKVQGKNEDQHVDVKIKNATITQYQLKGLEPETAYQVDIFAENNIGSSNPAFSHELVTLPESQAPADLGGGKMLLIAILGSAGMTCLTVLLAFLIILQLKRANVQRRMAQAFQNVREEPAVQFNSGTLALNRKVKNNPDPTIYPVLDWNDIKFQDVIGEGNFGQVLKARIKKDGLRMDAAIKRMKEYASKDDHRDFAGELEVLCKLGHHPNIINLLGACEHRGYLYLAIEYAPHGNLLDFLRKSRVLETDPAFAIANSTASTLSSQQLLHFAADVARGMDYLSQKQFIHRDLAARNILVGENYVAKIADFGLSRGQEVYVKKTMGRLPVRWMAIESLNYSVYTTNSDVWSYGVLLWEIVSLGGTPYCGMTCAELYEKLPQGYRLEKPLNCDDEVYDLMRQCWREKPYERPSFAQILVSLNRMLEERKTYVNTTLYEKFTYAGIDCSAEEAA
Text: The inhibitor compounds described herein are screened in the following manner. Kinases suitable for use in the following protocol to determine kinase activity of the compounds described herein include, -but are not limited to: Lck, Lyn, Src, Fyn, Syk, Zap-70, Itk, Tec, Btk, EGFR, ErbB2, Kdr, Flt-1, Flt-3, Tek, c-Met, InsR, and AKT.
Kinases are expressed as either kinase domains or full length constructs fused to glutathione S-transferase (GST) or polyHistidine tagged fusion proteins in either E. colior Baculovirus-High Five expression systems. They are purified to near homogeneity by affinity chromatography essentially as previously described (Lehr et al., 1996; Gish et al., 1995). In some instances, kinases are co-expressed or mixed with purified or partially purified regulatory polypeptides prior to measurement of activity.
Kinase activity and inhibition are measured essentially by established protocols (Braunwalder et al., 1996). Briefly, The transfer of ^33PO4 from ATP to the synthetic substrates poly(Glu, Tyr) 4:1 or poly(Arg, Ser) 3:1 attached to the bioactive surface of microtiter plates serves as the basis to evaluate enzyme activity. After an incubation period, the amount of phosphate transferred is measured by first washing the plate with 0.5% phosphoric acid, adding liquid scintillant, and then counting in a liquid scintillation detector. The IC50 is determined by the concentration of compound that causes a 50% reduction in the amount of […] incorporated onto the substrate bound to the plate.

[3] = biological target: T3, AKT (Homo sapiens, UniProt Q9Y243); assay: Kinase inhibition assay (33P transfer), AKT; details: Table 2, kinase inhibition class; read-out: AKT3-1
T3 construct: Kinases are expressed as either kinase domains or full length constructs; made in house
T3 sequence (Q9Y243 whole entry, the tested form may be a part): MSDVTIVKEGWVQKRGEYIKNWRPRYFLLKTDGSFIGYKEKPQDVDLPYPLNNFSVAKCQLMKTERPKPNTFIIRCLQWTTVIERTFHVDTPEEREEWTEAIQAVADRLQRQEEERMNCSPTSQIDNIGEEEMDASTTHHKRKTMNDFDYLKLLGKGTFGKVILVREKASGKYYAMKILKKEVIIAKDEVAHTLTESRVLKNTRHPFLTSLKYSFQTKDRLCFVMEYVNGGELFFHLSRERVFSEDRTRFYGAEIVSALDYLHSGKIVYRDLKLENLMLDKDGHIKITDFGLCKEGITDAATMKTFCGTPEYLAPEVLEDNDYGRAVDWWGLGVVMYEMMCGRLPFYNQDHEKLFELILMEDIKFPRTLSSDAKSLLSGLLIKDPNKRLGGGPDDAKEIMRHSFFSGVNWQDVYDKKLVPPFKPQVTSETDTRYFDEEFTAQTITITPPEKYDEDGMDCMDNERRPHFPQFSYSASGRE
Procedure, shortened: as §1

[4] = biological target: T4, Zap-70 (Homo sapiens, UniProt P43403); assay: Kinase inhibition assay (33P transfer), Zap-70; details: read-out: Zap-1
T4 construct: Kinases are expressed as either kinase domains or full length constructs; made in house
T4 sequence (P43403 1-619): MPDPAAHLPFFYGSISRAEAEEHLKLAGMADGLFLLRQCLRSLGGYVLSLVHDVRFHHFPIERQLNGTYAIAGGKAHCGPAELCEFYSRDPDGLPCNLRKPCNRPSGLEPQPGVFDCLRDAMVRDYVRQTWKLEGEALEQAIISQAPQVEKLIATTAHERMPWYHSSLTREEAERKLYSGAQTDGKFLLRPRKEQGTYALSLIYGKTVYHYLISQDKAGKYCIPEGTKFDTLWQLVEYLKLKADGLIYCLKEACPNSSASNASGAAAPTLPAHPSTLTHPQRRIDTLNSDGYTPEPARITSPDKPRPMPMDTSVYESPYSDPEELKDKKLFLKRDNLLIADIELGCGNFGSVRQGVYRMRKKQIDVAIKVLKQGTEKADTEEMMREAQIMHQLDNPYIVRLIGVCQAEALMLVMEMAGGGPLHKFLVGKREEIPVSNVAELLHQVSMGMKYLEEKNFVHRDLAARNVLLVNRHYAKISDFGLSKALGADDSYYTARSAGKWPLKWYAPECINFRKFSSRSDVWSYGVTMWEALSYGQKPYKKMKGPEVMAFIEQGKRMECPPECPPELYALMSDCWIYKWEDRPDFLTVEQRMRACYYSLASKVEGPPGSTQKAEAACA
Procedure, shortened: as §1

[5] = biological target: T5, c-Met (Homo sapiens, UniProt P08581); assay: Kinase inhibition assay (33P transfer), c-Met; details: Table 2, kinase inhibition class; read-out: Met-1
T5 construct: Kinases are expressed as either kinase domains or full length constructs; made in house
T5 sequence (P08581 25-1390): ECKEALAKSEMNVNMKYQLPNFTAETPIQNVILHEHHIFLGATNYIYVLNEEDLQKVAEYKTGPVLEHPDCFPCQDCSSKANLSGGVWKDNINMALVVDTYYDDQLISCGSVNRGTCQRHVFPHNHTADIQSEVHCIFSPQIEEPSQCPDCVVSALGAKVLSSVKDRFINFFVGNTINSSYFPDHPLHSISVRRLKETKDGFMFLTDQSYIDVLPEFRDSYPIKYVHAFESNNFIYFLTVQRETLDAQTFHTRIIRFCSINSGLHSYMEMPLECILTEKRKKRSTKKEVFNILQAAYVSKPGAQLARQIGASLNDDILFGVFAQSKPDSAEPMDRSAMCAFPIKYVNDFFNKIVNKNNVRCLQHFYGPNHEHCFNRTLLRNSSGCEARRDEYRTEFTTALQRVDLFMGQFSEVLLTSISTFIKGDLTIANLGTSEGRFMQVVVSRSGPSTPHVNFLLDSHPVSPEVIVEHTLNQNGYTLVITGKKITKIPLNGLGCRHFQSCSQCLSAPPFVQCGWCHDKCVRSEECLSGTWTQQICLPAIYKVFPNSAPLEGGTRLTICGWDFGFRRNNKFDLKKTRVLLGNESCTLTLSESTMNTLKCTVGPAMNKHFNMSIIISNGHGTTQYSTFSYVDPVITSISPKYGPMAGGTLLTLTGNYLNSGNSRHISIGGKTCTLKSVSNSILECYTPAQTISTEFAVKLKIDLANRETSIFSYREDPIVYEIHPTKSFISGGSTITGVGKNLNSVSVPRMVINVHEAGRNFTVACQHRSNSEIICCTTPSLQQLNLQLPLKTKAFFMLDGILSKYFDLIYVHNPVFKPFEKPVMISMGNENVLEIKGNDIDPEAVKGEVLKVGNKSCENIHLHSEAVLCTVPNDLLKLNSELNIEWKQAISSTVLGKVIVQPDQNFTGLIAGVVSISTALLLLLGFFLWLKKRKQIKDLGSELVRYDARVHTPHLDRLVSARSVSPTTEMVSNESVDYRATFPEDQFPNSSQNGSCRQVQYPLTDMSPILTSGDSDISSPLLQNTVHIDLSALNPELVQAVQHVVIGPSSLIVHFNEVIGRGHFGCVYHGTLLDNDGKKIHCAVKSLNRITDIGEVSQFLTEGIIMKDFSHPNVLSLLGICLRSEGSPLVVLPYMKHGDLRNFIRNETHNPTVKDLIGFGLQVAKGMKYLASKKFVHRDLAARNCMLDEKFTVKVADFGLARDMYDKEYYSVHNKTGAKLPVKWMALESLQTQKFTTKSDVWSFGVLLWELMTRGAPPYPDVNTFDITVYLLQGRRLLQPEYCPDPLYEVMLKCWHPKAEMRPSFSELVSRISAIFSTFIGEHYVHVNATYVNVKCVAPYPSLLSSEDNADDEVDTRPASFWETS
Procedure, shortened: (§2)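 Recombinant kinase domains or full-length GST- or His-tagged constructs, from E. coli or baculovirus/High Five cells, sometimes with regulatory polypeptides. Transfer of 33P from ATP to plate-bound poly(Glu,Tyr) 4:1 or poly(Arg,Ser) 3:1 counted by liquid scintillation after phosphoric acid wash; IC50 is the concentration halving incorporation.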

[6] = biological target: T6, Lck (Homo sapiens, UniProt P06239); assay: Kinase inhibition assay (33P transfer), Lck; details: read-out: Lck-1
T6 construct: Kinases are expressed as either kinase domains or full length constructs; made in house
T6 sequence (P06239 whole entry, species assumed, the tested form may be a part): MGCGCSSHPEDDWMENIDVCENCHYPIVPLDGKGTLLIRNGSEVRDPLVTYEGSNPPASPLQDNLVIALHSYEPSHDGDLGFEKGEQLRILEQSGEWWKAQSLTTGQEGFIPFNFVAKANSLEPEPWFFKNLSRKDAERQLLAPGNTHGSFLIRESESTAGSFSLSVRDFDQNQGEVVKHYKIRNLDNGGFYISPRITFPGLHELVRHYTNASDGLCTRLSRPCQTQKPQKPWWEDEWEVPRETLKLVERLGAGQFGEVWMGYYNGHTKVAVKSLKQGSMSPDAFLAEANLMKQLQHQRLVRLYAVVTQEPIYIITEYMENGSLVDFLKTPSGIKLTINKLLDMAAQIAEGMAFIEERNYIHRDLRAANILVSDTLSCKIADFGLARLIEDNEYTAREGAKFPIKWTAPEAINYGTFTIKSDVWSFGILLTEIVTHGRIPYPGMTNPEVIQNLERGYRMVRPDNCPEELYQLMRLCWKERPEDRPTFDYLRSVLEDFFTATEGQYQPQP
Procedure, shortened: as §1

[7] = biological target: T7, Itk (Homo sapiens, UniProt Q08881); assay: Kinase inhibition assay (33P transfer), Itk; details: read-out: Itk-1
T7 construct: Kinases are expressed as either kinase domains or full length constructs; made in house
T7 sequence (Q08881 1-620): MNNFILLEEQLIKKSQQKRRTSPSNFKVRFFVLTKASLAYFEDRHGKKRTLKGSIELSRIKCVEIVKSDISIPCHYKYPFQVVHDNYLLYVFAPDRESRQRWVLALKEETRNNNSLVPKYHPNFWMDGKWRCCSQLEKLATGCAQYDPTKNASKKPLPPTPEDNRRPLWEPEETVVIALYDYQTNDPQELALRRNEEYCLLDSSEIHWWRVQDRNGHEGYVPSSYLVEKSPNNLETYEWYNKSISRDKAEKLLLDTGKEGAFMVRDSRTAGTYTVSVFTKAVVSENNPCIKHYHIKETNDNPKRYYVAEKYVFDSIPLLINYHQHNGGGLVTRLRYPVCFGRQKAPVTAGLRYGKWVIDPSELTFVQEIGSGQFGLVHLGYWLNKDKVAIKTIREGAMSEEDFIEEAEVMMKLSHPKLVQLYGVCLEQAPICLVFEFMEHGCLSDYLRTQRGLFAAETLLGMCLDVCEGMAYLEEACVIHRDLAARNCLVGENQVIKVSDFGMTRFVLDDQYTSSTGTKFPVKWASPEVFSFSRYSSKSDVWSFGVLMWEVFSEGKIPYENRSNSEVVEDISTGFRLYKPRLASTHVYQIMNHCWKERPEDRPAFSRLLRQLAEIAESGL
Procedure, shortened: as §2

[8] = biological target: T8, EGFR (Homo sapiens, UniProt P00533); assay: Kinase inhibition assay (33P transfer), EGFR; details: Table 2, kinase inhibition class; read-out: EGFR-1
T8 construct: Kinases are expressed as either kinase domains or full length constructs; made in house
T8 sequence (P00533 25-1210, species assumed): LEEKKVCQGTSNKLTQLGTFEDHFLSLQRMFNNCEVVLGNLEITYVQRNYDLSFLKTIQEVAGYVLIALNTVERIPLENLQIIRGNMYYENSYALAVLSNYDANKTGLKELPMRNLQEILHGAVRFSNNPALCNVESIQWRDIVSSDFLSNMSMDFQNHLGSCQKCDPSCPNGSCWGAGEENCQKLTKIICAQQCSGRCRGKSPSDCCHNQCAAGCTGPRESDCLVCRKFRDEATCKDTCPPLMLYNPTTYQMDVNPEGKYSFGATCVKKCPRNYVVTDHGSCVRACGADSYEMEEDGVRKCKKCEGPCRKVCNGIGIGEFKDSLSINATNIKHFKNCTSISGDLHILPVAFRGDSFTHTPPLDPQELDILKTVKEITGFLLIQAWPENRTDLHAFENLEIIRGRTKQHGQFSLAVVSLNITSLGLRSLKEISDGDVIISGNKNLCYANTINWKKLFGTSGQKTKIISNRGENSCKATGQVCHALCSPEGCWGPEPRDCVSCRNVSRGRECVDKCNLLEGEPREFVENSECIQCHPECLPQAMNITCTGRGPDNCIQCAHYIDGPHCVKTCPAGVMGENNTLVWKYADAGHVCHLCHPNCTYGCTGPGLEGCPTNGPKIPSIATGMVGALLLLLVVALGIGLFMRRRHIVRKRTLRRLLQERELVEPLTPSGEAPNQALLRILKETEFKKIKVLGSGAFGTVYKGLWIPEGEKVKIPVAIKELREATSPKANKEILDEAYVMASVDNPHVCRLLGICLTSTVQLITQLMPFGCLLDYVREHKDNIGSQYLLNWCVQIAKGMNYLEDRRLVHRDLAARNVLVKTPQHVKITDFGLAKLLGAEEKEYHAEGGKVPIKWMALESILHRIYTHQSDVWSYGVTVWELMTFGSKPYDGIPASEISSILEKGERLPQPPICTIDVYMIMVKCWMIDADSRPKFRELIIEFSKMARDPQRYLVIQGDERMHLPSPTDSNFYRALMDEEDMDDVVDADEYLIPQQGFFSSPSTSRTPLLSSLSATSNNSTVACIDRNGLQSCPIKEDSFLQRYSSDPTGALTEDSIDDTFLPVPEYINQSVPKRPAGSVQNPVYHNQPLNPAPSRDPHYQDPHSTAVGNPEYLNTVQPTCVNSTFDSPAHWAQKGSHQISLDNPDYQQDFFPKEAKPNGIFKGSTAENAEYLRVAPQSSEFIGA
Procedure, shortened: as §2

## COc1cc(Nc2ncnc(-c3cccc4ccccc34)n2)cc(OC)c1OC [Compound 611]
[1]
  IC50: 1.03 to 6.18 µM
[2]
  IC50: 6.18 to 9.01 µM
[3]
  IC50: > 11.6 µM
[4]
  IC50: > 11.6 µM
[5]
  IC50: > 11.6 µM
[6]
  IC50: 1.03 to 6.18 µM
[7]
  IC50: 9.01 to 11.6 µM
[8]
  IC50: > 11.6 µM

## COc1cc(Nc2ncnc(Nc3cc(-c4cccc(Cl)c4)n[nH]3)n2)cc(OC)c1OC [Compound 495]
[1]
  IC50: 7.71 to 9.91 µM
[2]
  IC50: > 9.91 µM
[3]
  IC50: > 9.91 µM
[4]
  IC50: > 9.91 µM
[5]
  IC50: 0.881 to 5.29 µM
[6]
  IC50: 5.29 to 7.71 µM
[7]
  IC50: > 9.91 µM
[8]
  IC50: 0.881 to 5.29 µM

## COc1cc(Nc2ncnc(Nc3ncnc4[nH]cnc34)n2)cc(OC)c1OC [Compound 696]
[1]
  IC50: > 11.4 µM
[2]
  IC50: > 11.4 µM
[3]
  IC50: > 11.4 µM
[4]
  IC50: > 11.4 µM
[5]
  IC50: > 11.4 µM
[6]
  IC50: > 11.4 µM
[7]
  IC50: > 11.4 µM
[8]
  IC50: > 11.4 µM

## O=c1[nH]c2ccccc2n1-c1ncnc(Nc2ccc(OC(F)(F)F)cc2)n1 [Compound 462]
[1]; Table 3
  IC50: > 11.6 µM
[2]
  IC50: 6.18 to 9.01 µM
[3]
  IC50: > 11.6 µM
[4]; Table 3
  IC50: 6.18 to 9.01 µM
[5]
  IC50: 9.01 to 11.6 µM
[6]; Table 3
  IC50: 9.01 to 11.6 µM
[7]; Table 3
  IC50: > 11.6 µM
[8]
  IC50: > 11.6 µM

## Nc1nc2ccccc2n1-c1ncnc(Nc2ccc(Cl)c(Cl)c2)n1 [Compound 528]
[1]
  IC50: 1.07 to 6.45 µM
[2]
  IC50: 1.07 to 6.45 µM
[3]
  IC50: 1.07 to 6.45 µM
[4]
  IC50: 1.07 to 6.45 µM
[5]
  IC50: 1.07 to 6.45 µM
[6]
  IC50: 1.07 to 6.45 µM
[7]
  IC50: 1.07 to 6.45 µM
[8]
  IC50: 1.07 to 6.45 µM

## COc1cc(Nc2ncnc(-n3c(NCCc4cccnc4)nc4ccccc43)n2)cc(OC)c1OC [Compound 947]
[1]
  IC50: < 0.802 µM
[2]
  IC50: > 9.03 µM
[3]
  IC50: > 9.03 µM
[4]
  IC50: > 9.03 µM
[5]
  IC50: > 9.03 µM
[6]
  IC50: > 9.03 µM
[7]
  IC50: 4.81 to 7.02 µM
[8]
  IC50: > 9.03 µM

## CC(C)(C)c1ccc(Nc2ncnc(-n3c(N)nc4ccccc43)n2)cc1 [Compound 525]
[1]
  IC50: 6.68 to 9.74 µM
[2]
  IC50: 6.68 to 9.74 µM
[3]
  IC50: > 12.5 µM
[4]
  IC50: > 12.5 µM
[5]
  IC50: 9.74 to 12.5 µM
[6]
  IC50: 6.68 to 9.74 µM
[7]
  IC50: 6.68 to 9.74 µM
[8]
  IC50: > 12.5 µM

## COc1ccccc1Nc1nc2ccccc2n1-c1ncnc(Nc2cc(OC)c(OC)c(OC)c2)n1 [Compound 398]
[1]; Table 3
  IC50: 4.8 to 7.01 µM
[2]
  IC50: 7.01 to 9.01 µM
[3]
  IC50: > 9.01 µM
[4]; Table 3
  IC50: > 9.01 µM
[5]
  IC50: > 9.01 µM
[6]; Table 3
  IC50: > 9.01 µM
[7]; Table 3
  IC50: > 9.01 µM
[8]
  IC50: > 9.01 µM

## COC(=O)C(c1ccccc1)c1ncnc(Nc2cc(OC)c(OC)c(OC)c2)n1 (stereo not drawn) [Compound 1038]
[1]
  IC50: > 11 µM
[2]
  IC50: > 11 µM
[3]
  IC50: > 11 µM
[4]
  IC50: > 11 µM
[5]
  IC50: > 11 µM
[6]
  IC50: 0.975 to 5.85 µM
[7]
  IC50: > 11 µM
[8]
  IC50: > 11 µM

## O=c1[nH]c2ccccc2n1-c1ncnc(Nc2ccc(NS(=O)(=O)c3ccc([N+](=O)[O-])cc3)cc2)n1 [Compound 422]
[1]; Table 3
  IC50: 0.793 to 4.76 µM
[2]
  IC50: 6.94 to 8.92 µM
[3]
  IC50: 0.793 to 4.76 µM
[4]; Table 3
  IC50: > 8.92 µM
[5]
  IC50: > 8.92 µM
[6]; Table 3
  IC50: > 8.92 µM
[7]; Table 3
  IC50: > 8.92 µM
[8]
  IC50: 0.793 to 4.76 µM

## COc1cc(Nc2ncnc(-n3c(OCc4ccccn4)nc4ccccc43)n2)cc(OC)c1OC [Compound 690]
[1]
  IC50: < 0.824 µM
[2]
  IC50: > 9.27 µM
[3]
  IC50: > 9.27 µM
[4]
  IC50: > 9.27 µM
[5]
  IC50: > 9.27 µM
[6]
  IC50: > 9.27 µM
[7]
  IC50: > 9.27 µM
[8]
  IC50: > 9.27 µM

## O=C(O)Cc1ccc(Nc2ncnc(Nc3cc(-c4ccccc4)n[nH]3)n2)cc1 [Compound 982]
[1]
  IC50: < 1.03 µM
[2]
  IC50: 1.03 to 6.2 µM
[3]
  IC50: 9.03 to 11.6 µM
[4]
  IC50: 1.03 to 6.2 µM
[5]
  IC50: 1.03 to 6.2 µM
[6]
  IC50: 1.03 to 6.2 µM
[7]
  IC50: 1.03 to 6.2 µM
[8]
  IC50: 1.03 to 6.2 µM

## O=C(O)Cc1ccc(Nc2ncnc(Nc3cc(-c4ccco4)n[nH]3)n2)cc1 [Compound 984]
[1]
  IC50: < 1.06 µM
[2]
  IC50: > 11.9 µM
[3]
  IC50: > 11.9 µM
[4]
  IC50: 9.27 to 11.9 µM
[5]
  IC50: 1.06 to 6.36 µM
[6]
  IC50: 1.06 to 6.36 µM
[7]
  IC50: 1.06 to 6.36 µM
[8]
  IC50: < 1.06 µM

## CCOC(=O)Cc1ccc(Nc2ncnc(Nc3cc(-c4ccco4)n[nH]3)n2)cc1 [Compound 432]
[1]; Table 3
  IC50: 0.987 to 5.92 µM
[2]
  IC50: > 11.1 µM
[3]
  IC50: > 11.1 µM
[4]; Table 3
  IC50: > 11.1 µM
[5]
  IC50: 0.987 to 5.92 µM
[6]; Table 3
  IC50: > 11.1 µM
[7]; Table 3
  IC50: 8.63 to 11.1 µM
[8]
  IC50: 0.987 to 5.92 µM

## COc1cc(Nc2ncnc(Nc3ccc(C(C)=O)cc3)n2)cc(OC)c1OC [Compound 698]
[1]
  IC50: < 1.01 µM
[2]
  IC50: 8.85 to 11.4 µM
[3]
  IC50: > 11.4 µM
[4]
  IC50: > 11.4 µM
[5]
  IC50: > 11.4 µM
[6]
  IC50: < 1.01 µM
[7]
  IC50: 1.01 to 6.07 µM
[8]
  IC50: 6.07 to 8.85 µM
